The test system of this series is scalp. The series is described as follows: monadic use test for scalp compatibility and mildness. Also noted: species or system consumers. The note with it: in vivo. How it is done:
The above compositions were tested in a monadic use test for scalp compatibility and mildness. Both compositions were used to dye hair of 30 consumers each having shoulder length hair. The composition was mixed with a composition comprising 6% hydrogen peroxide at a weight ratio of 1 to 1 and applied onto hair and processed for 30 min at a temperature of 40° C. and rinsed off. It was observed that both composition colour hair in the same way to the same colour direction. The following observations were made on scalp irritation.

SMILES strings stand for the structures.

Regarding `O=C(CCc1ccc(O)cc1)Nc1ccccc1C(=O)O` [hydroxyphenyl propamidobenzoic acid, Hydroxyphenyl propamidobenzoic acid], the “mildness and scalp compatibility of hair dyeing composition (conclusion in words)” value was “improved mildness of hair dyeing composition and improved scalp compatibility”.

The record behind these values is patent US9770397B2, “Oxidative dyeing composition” (KAO GERMANY GMBH, priority 2012, dated 2017).
